According to US20220401385A1, “Combination Therapy Based on PD-1 Signaling Inhibitors” (Kyoto University, priority 2019, published 2022):
“Also recorded” adds a separate entry of the source.

Key:
MC38 cells = test: MC38 mouse therapy model, tumor growth and survival; format: in vivo, C57BL/6 mice
Experimental: FIG. 1-1 a) CD8^+ T cells or CD3^+ T cells were isolated from mice, and 2×10^5 cells were stimulated with CD3/CD28 beads in 96-well U plates. After 24 hours and 48 hours, cells and culture supernatant were collected, followed by measurement of spermidine (SPD) concentration by mass spectrometry. […] Ten days after inoculation, PD-L1 antibody (2 mg/kg), PD-L1 antibody+SPD (2 mg/kg), or SPD alone was administered. Subsequently, PD-L1 antibody was administered 4 times at a regular interval of 5 days, and SPD was administered 8 times at a regular interval of 3 days. Tumor growth curve and survival curve are shown. c) Draining lymph nodes (DLNs) of mice were isolated 13 days after tumor inoculation, and stained with antibodies to CD8, CD44 and CD62L. The number of cells in draining lymph node (cells/DLN) in each treatment group is shown at the left side. After being gated, CD8^+ T cells were fractionated with CD44 and CD62L into P1 to P4 cell populations. Percentages and cell numbers of P1 to P4 in each treatment group are shown. d) Tumor was isolated 13 days after tumor inoculation and treated with collagenase. Percentages and numbers per mg tumor of tumor-infiltrating CD8^+ CD45.2^+ cells are shown. For statistical analysis, ANOVA was used. * p<0.05, ** p<0.01, *** p<0.001, **** p<0.0001.
FIG. 8 MC38 cells (5×10^5) were intradermally inoculated into C57BL/6 mice. Ten days after inoculation, PD-L1 antibody (2 mg/kg), PD-L1 antibody+SPD (2 mg/kg) or PD-L1 antibody+SPM (6 mg/kg) was administered. Subsequently, […] was administered 4 times at a regular interval of 5 days, whereas SPD and SPM were administered 8 times at a regular interval of 3 days. Tumor growth curve is shown.
MC38 cells (5×10^5) were intradermally injected on the right flank. Ten days after inoculation, PD-L1 antibody (1-111A; prepared by and stored at the Department of Immunology and Genomic Medicine, Graduate School of Medicine, Kyoto University) (Immunology Letters 84 (2002) 57-62) (2 mg/kg), PD-L1 antibody+SPD (2 mg/kg) or SPD alone was administered to mice. Subsequently, PD-L1 antibody was administered 4 times at a regular interval of 5 days, and SPD was administered 8 times at a regular interval of 3 days. Tumors were measured on every alternate day, and tumor volumes were calculated using the formula for typical ellipsoid, π×(length×breadth×height/6).

[1] = system: draining lymph node CD8+ T cells; test: Seahorse OCR/ECAR of draining lymph node CD8+ T cells of treated mice; format: in vivo, C57BL/6 mice; details: combined therapy compared to PD-1 inhibition alone
Experimental: FIG. 2-1 a) Treated mice were analyzed for draining lymph nodes and the inside of tumor. Briefly, draining lymph nodes of mice were isolated 13 days after tumor inoculation, and stained with antibodies to CD8 and Sca-1. FACS diagram and percentages of Sca-1^+ cells in CD8^+ T cells are shown. b) CD8^+ T cells in isolated draining lymph nodes were stimulated with CD3/CD28 antibody beads. After 24 hours, cell proliferation was examined by means of ^3H uptake. At the same time, IFN-γ concentration in culture supernatant was measured. c) Tumor from the same mice as described above was treated with collagenase. Then, expression rates of PD-1 and Tim3 in tumor-infiltrating CD8^+ T cells were analyzed. d) Oxygen consumption rate (OCR) and extracellular acidification rate (ECAR) of draining lymph node CD8^+ T cells were measured with a Seahorse analyzer (N=3 wells). For statistical analysis, ANOVA was used. * p<0.05, ** p<0.01, *** p<0.001, **** p<0.0001.
Oxygen consumption rates were measured using an XF96 Extracellular Flux Analyzer (Seahorse Bioscience). CD8^+ T cells (4×10^5) per well were seeded in a determined XF96 plate. The four chemical modulators of mitochondrial oxidative phosphorylation, which came with an XF Cell Mito Stress Test Kit (Seahorse Bioscience), were added to the module sequentially. In brief, basal OCR measurement was performed […] sequential addition of oligomycin, FCCP, and rotenone/antimycin A. SRC and ATP production rates were calculated by the following formulas:
SRC (pmo; 02/min)=OCRmaximal−OCRbasal
mitoATP (pmol ATP/min)=(OCRbasal−OCRoligo)×5.5.

CD44 high CD8+ T cells = test: PI and Annexin apoptosis assay, CD44 high cells; format: cell-based, mice; details: in the presence of SPD 0.2 μM
Experimental: FIG. 4 CD8^+ T cells were isolated from the spleen of mice without tumor inoculation, and further isolated into CD44^+ (CD44 high) and CD44^− (CD44 low) cell populations. a) CD44 low cells were simulated with CD3/CD28 antibody beads and SPD (0.2 μM). After 30 minutes, 1 hour, 2 hours and 72 hours, OCR was measured with a Seahorse analyzer. b) At the same time, total ATP production and glycolytic pathway-derived or mitochondrial activity-derived ATP production were calculated at 30-minute, 1-hour and 2-hour. c) CD44 low cells (2×10^5 cells) were stimulated with CD3/CD28 antibody beads and SPD (0.2 μM). After 24 hours, cell proliferation was examined by means of 3H uptake. d) Spare respiratory capacity (SRC) was calculated from the OCR measurement after 72 hours in a), and results with and without SPD were compared. e) CD44 low cells were stimulated with CD3/CD28 antibody beads and SPD (0.2 μM). After 24 hours, frequencies between apoptotic and viable cells were calculated by PI and Annexin staining. f-j) CD44 high cells were analyzed under the same conditions and by the same methods as described in a-e) above. […] All flow cytometry experiments were performed on FACS Canto II (BD Biosciences) and analyzed using FlowJo software (FLOWJO, LLC). […]

NCCCCNCCCN [SPD, spermidine]
antitumor effect of the PD-1 inhibitory antibody (MC38 cells; SPD (2 mg/kg) in combination with PD-L1 antibody (2 mg/kg), MC38 in C57BL/6 mice): synergistically improved; also recorded: greatly enhanced | antitumor effect (MC38 cells; spermidine alone, in living bodies): no antitumor effect | glycolysis (ECAR) of CD8+ T cells [1]: increased | oxygen consumption (OCR) of CD8+ T cells [1]: increased | spare respiratory capacity (SRC) of CD8+ T cells [1]: increased | apoptotic cells (CD44 high CD8+ T cells): decreased | viable cells (CD44 high CD8+ T cells): increased; also recorded: significantly high
